According to patent US9056176B2, “1-phenyl-2-pyridinyl alkyl alcohol compounds as phosphodiesterase inhibitors” (CHIESI FARMACEUTICI S.P.A., priority 2009, dated 2015):

Key:
[1] = tested on: OA-induced contraction in guinea-pig trachea; test: OA-induced contraction of tracheal preparations from OA-sensitised guinea pigs (organ bath); details: 30-minute pre-treatment
Experimental: Zig-zag tracheal segments are obtained from male Ovoalbumin (OA)-sensitised guinea pigs and two preparations are obtained from a trachea. Each preparation is placed in 20-ml organ bath filled with oxygenated (O2 95% and CO2 5%) normal Krebs-Henseleit solution and maintained at 37° C. Tracheal preparations are connected to isometric force transducers under a resting tone of 1 g. After an equilibration period of 60 minutes, tracheal preparations are pretreated for 30 minutes with C1 (10^-7 M), Carmoterol (3*10^-10 M), the association C1 and Carmoterol or vehicle, respectively, followed by cumulative administration of OA (10^−10-10^−5 g/ml). At the end of the OA administration a maximal concentration of carbachol (10^−5 M) is added to obtain the maximal contraction of each preparation. The effects are expressed as percent values of the carbachol-induced maximal response (100%).

[2] = tested on: LPS-induced TNF-α release in human PBMCs (PDE4 inhibitory activity); test: LPS-induced TNF-α release in peripheral blood mononuclear cells (PBMCs) assay; format: cell-based; details: PBMC, LPS 3 ng/ml, 18 hours, TNF-α by ELISA, mean ± 95% confidence limits, read-out: molar concentration producing 50% inhibition of LPS-induced TNF-α release (IC50)
Experimental: The assay, which is based on the known inhibitory activity exerted by PDE4 inhibitors on the lipopolyshaccarides (LPS)-induced tumour necrosis factor-alpha (TNF-α release in peripheral blood mononuclear cells (PBMCs), is performed according to a method previously described (Hatzelmann A et al., J. Pharmacol. Exp. Ther., 2001; 297:267-279; and Draheim R et al., J. Pharmacol. Exp. Ther., 2004; 308:555-563, both of which are incorporated herein by reference in their entireties.
Cryopreserved human PBMCs, (100 μl/well) are incubated in 96-well plates (10^5 cells/well), for 30 minutes, in the presence or absence (50 microl) of the test compounds whose concentrations range from 10^−12 M to 10^−6 M. Subsequently, LPS (3 ng/ml) is added.
After 18 hours incubation at 37° C. in a humidified incubator under an atmosphere of 95% air and 5% CO2, culture medium is collected and TNF-α is measured by ELISA.
The effects of the tested compounds are calculated as percentage of inhibition of TNF-α release, assuming LPS-induced TNF-α production in the absence of inhibitor compound as 100% and basal TNF-α production of PBMCs in the absence of LPS as 0%.

Structure (SMILES)	inhibition of the OA-induced contraction ([1]; Carmoterol 3*10^-10 M)	IC50 [2]	inhibition at 0.1 µM ([1]; Cavia porcellus, C1 10^−7 M)
COc1ccc(C[C@@H](C)NC[C@H](O)c2ccc(O)c3[nH]c(=O)ccc23)cc1 [Carmoterol, carmoterol, reference compound]	18%	–	–
CS(=O)(=O)Nc1ccc(C(=O)OC(Cc2c(Cl)cncc2Cl)c2ccc(OC(F)F)c(OCC3CC3)c2)cc1OCC1CC1 (single isomer, unassigned; (-)) [Compound C1, (−)-3-Cyclopropylmethoxy-4-methanesulfonylamino-benzoic acid 1-(3-cyclopropylmethoxy-4-difluoromethoxy-phenyl)-2-(3,5-dichloro-pyridin-4-yl)-ethyl ester]	–	0.06 to 4.4 nM	23%
